ChEMBL document CHEMBL1124856, “Extension of a redox-based chemical delivery system to alpha, beta-unsaturated ketones” (J Med Chem, 1990)
Values joined by “and” are separate entries in the source; they are usually repeats but may differ in a detail not shown here. Equal values may be shown once.

Tests used:
Rattus norvegicus [1] = species: Rattus norvegicus; experiment: In vitro rate constant, correlation coefficient for the disappearance in rat liver homogenate; assay type: ADME
Rattus norvegicus [2] = species: Rattus norvegicus; experiment: In vitro rate constant, correlation coefficient for the disappearance in rat brain homogenate; assay type: ADME
[3] = Half-life for the disappearance in rat brain homogenate; assay type: ADME
[4] = Half-life for the disappearance in rat liver homogenate; assay type: ADME
Homo sapiens [5] = species: Homo sapiens; experiment: Half-life for the disappearance in whole human blood; Stable; assay type: ADME, organism-based; conditions: in vitro
Homo sapiens [6] = species: Homo sapiens; experiment: In vitro rate constant, correlation coefficient for the disappearance in whole human blood; Stable
Rattus norvegicus [7] = species: Rattus norvegicus; experiment: In vitro rate constant, correlation coefficient for the conversion to progesterone in rat liver homogenate; assay type: ADME
Rattus norvegicus [8] = species: Rattus norvegicus; experiment: In vitro rate constant, correlation coefficient for the conversion to progesterone in whole rat blood.; assay type: ADME, organism-based

Q: With `CC(=O)C1CCC2C3CC=C4C=C(OC(=O)C5=CN(C)C=CC5)CCC4(C)C3CCC12C` (stereo not drawn) as the molecule, how does the Correlation coefficient (Rattus norvegicus [1]) read?
A: 0.999

Q: And the Correlation coefficient (Rattus norvegicus [2])?
A: 0.98

Q: What about the half-life [3] of the same molecule?
A: 1.77 h

Q: What about the half-life [4] of the same molecule?
A: 0.267 h

Q: And the T1/2 (Homo sapiens [5])?
A: Stable

Q: And the T1/2 (Homo sapiens [6])?
A: Stable

Q: For `CC(=O)C1CCC2C3CC=C4C=C(OC(=O)c5ccc[n+](C)c5)CCC4(C)C3CCC12C.[I-]` (stereo not drawn), which Correlation coefficient (Rattus norvegicus [7]) is on record?
A: 0.996 and 0.994

Q: And the Correlation coefficient (Rattus norvegicus [8])?
A: 0.998
